Measurements reported in PMC3037030 (Biochimica et biophysica acta, 2010).
Where two headings read alike, the source gives them in different places. Blank lines part the entries; values can stand above or below the compound they belong to.

Tests used:
Acsl4 [1] = target: T1, Acsl4 (Rattus norvegicus, UniProt O35547); experiment: radiometric acyl-CoA synthetase assay; assay type: biochemical; details: read-out: Substrate / AA
Acsl4 [2] = target: T1, Acsl4; experiment: radiometric acyl-CoA synthetase assay; assay type: biochemical
Acsl4 [3] = target: T1, Acsl4; assay type: biochemical
Acsl4 [4] = target: T1, Acsl4; experiment: radiometric acyl-CoA synthetase assay, […] inhibition at […]; assay type: cell-based; details: read-out: % inhibition at 10 μM
Acsl3 = Acsl3 (Rattus norvegicus, UniProt Q63151); experiment: as above; assay type: cell-based; details: read-out: % inhibition at 10 μM
Sequence of Acsl3 (Q63151 whole entry): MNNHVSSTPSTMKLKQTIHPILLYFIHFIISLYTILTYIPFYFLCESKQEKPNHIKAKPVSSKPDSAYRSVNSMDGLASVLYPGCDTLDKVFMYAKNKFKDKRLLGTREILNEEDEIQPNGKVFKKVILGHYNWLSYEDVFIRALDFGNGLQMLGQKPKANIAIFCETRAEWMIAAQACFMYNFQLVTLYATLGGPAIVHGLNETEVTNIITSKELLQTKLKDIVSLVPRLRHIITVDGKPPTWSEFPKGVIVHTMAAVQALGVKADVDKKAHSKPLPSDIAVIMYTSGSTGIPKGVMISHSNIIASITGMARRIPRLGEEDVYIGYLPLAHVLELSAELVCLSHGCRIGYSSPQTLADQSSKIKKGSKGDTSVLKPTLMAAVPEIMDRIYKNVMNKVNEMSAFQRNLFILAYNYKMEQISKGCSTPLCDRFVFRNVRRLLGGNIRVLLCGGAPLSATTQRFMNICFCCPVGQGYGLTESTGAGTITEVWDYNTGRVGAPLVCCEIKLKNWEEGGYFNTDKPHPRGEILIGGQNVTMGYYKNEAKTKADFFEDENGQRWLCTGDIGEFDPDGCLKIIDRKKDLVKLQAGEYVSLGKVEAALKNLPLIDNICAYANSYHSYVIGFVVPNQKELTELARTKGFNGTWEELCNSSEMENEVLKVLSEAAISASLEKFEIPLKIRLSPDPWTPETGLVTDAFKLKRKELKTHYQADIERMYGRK

T1 sequence (O35547 whole entry): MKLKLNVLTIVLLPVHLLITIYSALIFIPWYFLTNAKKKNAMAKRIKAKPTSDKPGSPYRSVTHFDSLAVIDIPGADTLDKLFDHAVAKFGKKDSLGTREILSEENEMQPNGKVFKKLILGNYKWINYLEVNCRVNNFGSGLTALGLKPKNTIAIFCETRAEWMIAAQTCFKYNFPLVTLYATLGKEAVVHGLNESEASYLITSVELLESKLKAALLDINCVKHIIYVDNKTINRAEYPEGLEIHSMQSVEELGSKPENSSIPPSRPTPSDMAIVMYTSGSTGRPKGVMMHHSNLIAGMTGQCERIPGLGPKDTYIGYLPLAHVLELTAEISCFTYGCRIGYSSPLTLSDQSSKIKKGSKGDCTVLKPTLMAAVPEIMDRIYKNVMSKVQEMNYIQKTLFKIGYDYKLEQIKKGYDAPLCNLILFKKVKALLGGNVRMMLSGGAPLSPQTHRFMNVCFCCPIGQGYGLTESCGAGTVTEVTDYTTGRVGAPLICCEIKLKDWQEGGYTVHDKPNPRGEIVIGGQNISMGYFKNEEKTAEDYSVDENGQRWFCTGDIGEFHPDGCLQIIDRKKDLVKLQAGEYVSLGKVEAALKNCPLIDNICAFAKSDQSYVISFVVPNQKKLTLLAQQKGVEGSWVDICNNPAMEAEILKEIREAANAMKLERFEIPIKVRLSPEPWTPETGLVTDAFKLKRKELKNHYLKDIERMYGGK

SMILES: CCCCC/C=C\C/C=C\C/C=C\C/C=C\CCCC(=O)O [AA, arachidonic acid]
Km (Acsl4 [1]): 4.98 ± 1.41 µM

SMILES: CC/C=C\C/C=C\C/C=C\C/C=C\C/C=C\C/C=C\CCC(=O)O [DHA, docosahexaenoic acid]
Km (Acsl4 [2]; read-out: Substrate / DHA): 26.6 ± 3.95 µM

SMILES: CCC/C=C/C/C=C/C=C/C=N/NN=O [triacsin C]
inhibition at 10 µM (Acsl4 [4]): 85%
inhibition at 10 µM (Acsl3): 90%

More lines, now with the values ahead:

Ki (Acsl4 [3]): 24.9 ± 2.61 mM
SMILES: CCCC(CCC)C(=O)O [VPA, valproate]

Km (Acsl4 [2]; read-out: Substrate / Palmitic Acid): 16.7 ± 6.25 µM
SMILES: CCCCCCCCCCCCCCCC(=O)O [palmitic acid]
